pIC50: −log10 of the molar value.
How the values were obtained:
Type in all cases: functional, cell-based
MCF7 = assay: Antiproliferative activity against human MCF7 cells assessed as reduction in cell viability incubated for 48 hrs by MTS assay; conditions: MCF7, 48 h
A549 = assay: Antiproliferative activity against human A549 cells assessed as reduction in cell viability incubated for 48 hrs by MTS assay; conditions: A549, 48 h
SW480 = assay: Antiproliferative activity against human SW480 cells assessed as reduction in cell viability incubated for 48 hrs by MTS assay; conditions: SW480, 48 h
SMMC-7721 = assay: Antiproliferative activity against human SMMC7721 cells assessed as reduction in cell viability incubated for 48 hrs by MTS assay; conditions: SMMC-7721, 48 h
HL-60 = assay: Antiproliferative activity against human HL60 cells assessed as reduction in cell viability incubated for 48 hrs by MTS assay; conditions: HL-60, 48 h

SMILES | pIC50 (MCF7) | pIC50 (A549) | pIC50 (SW480) | pIC50 (SMMC-7721) | pIC50 (HL-60)
C[C@@H]1CC[C@@]2(OC1)O[C@H]1C[C@H]3[C@@H]4CC=C5C[C@H](n6cc[n+](Cc7ccccc7Br)c6)CC[C@]5(C)[C@H]4CC[C@]3(C)[C@H]1[C@@H]2C | 5.85 | 5.91 | 5.78 | 6.02 | 6.37
CC(=O)O[C@H]1C(=O)[C@@]2(C)[C@H]([C@H](OC(=O)c3ccccc3)[C@]3(O)C[C@H](OC(=O)[C@H](O)[C@@H](NC(=O)c4ccccc4)c4ccccc4)C(C)=C1C3(C)C)[C@]1(OC(C)=O)CO[C@@H]1C[C@@H]2O [PACLITAXEL] | > 8.10 | > 8.10 | > 8.10 | > 8.10 | > 8.10
C[C@]12CC[C@H]3[C@@H](CC=C4C[C@@H](O)CC[C@@]43C)[C@@H]1CC[C@@H]2n1ccnc1 | < 4.70 | < 4.70 | < 4.70 | < 4.70 | < 4.70
CC(=O)O[C@H]1CC[C@@]2(C)C(=CC[C@H]3[C@@H]4CC[C@H](n5cc[n+](CC(=O)c6ccc7ccccc7c6)c5)[C@@]4(C)CC[C@@H]32)C1 | 5.68 | 5.36 | 5.35 | 5.76 | 5.90
COc1ccc(C(=O)C[n+]2cn([C@@H]3CC[C@@]4(C)C(=CC[C@H]5[C@@H]6C[C@@H]7O[C@]8(CC[C@@H](C)CO8)[C@@H](C)[C@@H]7[C@@]6(C)CC[C@@H]54)C3)c3cc(C)c(C)cc32)cc1 | 5.64 | 5.30 | 5.70 | 6.36 | 6.13
CC(C)CCC[C@@H](C)[C@H]1CC[C@H]2[C@@H]3CC=C4C[C@H](n5cnc6ccccc65)CC[C@]4(C)[C@H]3CC[C@]12C | < 4.70 | < 4.70 | < 4.70 | < 4.70 | < 4.70
Cc1cc2c(cc1C)[n+](Cc1ccccc1Br)cn2[C@@H]1CC[C@@]2(C)C(=CC[C@H]3[C@@H]4CC[C@H]([C@H](C)CCCC(C)C)[C@@]4(C)CC[C@@H]32)C1 | 4.85 | 5.07 | 4.88 | 5.74 | 5.16
C[C@]12CC[C@H]3[C@@H](CC=C4C[C@@H](O)CC[C@@]43C)[C@@H]1CC[C@@H]2n1cc[n+](Cc2ccccc2Br)c1 | 5.02 | < 4.70 | < 4.70 | 5.12 | 5.20
CC(C)CCC[C@@H](C)[C@H]1CC[C@H]2[C@@H]3CC=C4C[C@@H](n5cc[n+](Cc6ccccc6Br)c5)CC[C@]4(C)[C@H]3CC[C@]12C | 5.12 | 5.09 | 5.11 | 5.84 | 5.63
C[C@@H]1CC[C@@]2(OC1)O[C@H]1C[C@H]3[C@@H]4CC=C5C[C@H](n6c[n+](CC(=O)c7ccc8ccccc8c7)c7ccccc76)CC[C@]5(C)[C@H]4CC[C@]3(C)[C@H]1[C@@H]2C | 5.78 | 5.88 | 5.76 | 5.88 | 5.96
Cc1cc2c(cc1C)[n+](CC(=O)c1cccc(Br)c1)cn2[C@@H]1CC[C@@]2(C)C(=CC[C@H]3[C@@H]4C[C@@H]5O[C@]6(CC[C@@H](C)CO6)[C@@H](C)[C@@H]5[C@@]4(C)CC[C@@H]32)C1 | 5.56 | 5.15 | 5.65 | 5.86 | 6.01
COc1ccc(C(=O)C[n+]2cn([C@@H]3CC[C@@]4(C)C(=CC[C@H]5[C@@H]6CC[C@H]([C@H](C)CCCC(C)C)[C@@]6(C)CC[C@@H]54)C3)c3ccccc32)cc1 | 5.01 | 5.12 | 5.00 | 5.84 | 5.36
CC(C)CCC[C@@H](C)[C@H]1CC[C@H]2[C@@H]3C[C@H](n4cc[n+](CC(=O)c5ccc6ccccc6c5)c4)[C@]45C[C@H]4CC[C@]5(C)[C@H]3CC[C@]12C | 5.10 | 5.07 | 5.20 | 5.91 | 5.62
C[C@@H]1CC[C@@]2(OC1)O[C@H]1C[C@H]3[C@@H]4CC=C5C[C@H](n6cc[n+](Cc7ccc8ccccc8c7)c6)CC[C@]5(C)[C@H]4CC[C@]3(C)[C@H]1[C@@H]2C | 5.96 | 5.95 | 5.80 | 5.94 | 6.00
CC(C)CCC[C@@H](C)[C@H]1CC[C@H]2[C@@H]3C[C@H](n4cc[n+](Cc5ccccc5Br)c4)[C@]45C[C@H]4CC[C@]5(C)[C@H]3CC[C@]12C | 4.97 | 5.12 | 4.96 | 5.94 | 5.26
c1ccc2[nH]cnc2c1 [BENZIMIDAZOLE] | < 4.70 | < 4.70 | < 4.70 | < 4.70 | < 4.70

SMILES | pIC50 (MCF7) | pIC50 (A549) | pIC50 (SW480) | pIC50 (SMMC-7721) | pIC50 (HL-60)
Cc1cc2c(cc1C)[n+](CC(=O)c1ccc3ccccc3c1)cn2[C@@H]1CC[C@@]2(C)C(=CC[C@H]3[C@@H]4C[C@@H]5O[C@]6(CC[C@@H](C)CO6)[C@@H](C)[C@@H]5[C@@]4(C)CC[C@@H]32)C1 | 5.52 | 5.26 | 5.51 | 6.24 | 6.35
C[C@]12CC[C@H](O)CC1=CC[C@@H]1[C@@H]2CC[C@]2(C)C(=O)CC[C@@H]12 [PRASTERONE] | < 4.70 | < 4.70 | < 4.70 | < 4.70 | < 4.70
CC(=O)O[C@H]1CC[C@@]2(C)C(=CC[C@H]3[C@@H]4CC[C@H](n5cc[n+](CC(=O)c6cccc(Br)c6)c5)[C@@]4(C)CC[C@@H]32)C1 | 5.31 | 5.14 | 5.14 | 5.26 | 5.36
C[C@]12CC[C@H]3[C@@H](CC=C4C[C@@H](O)CC[C@@]43C)[C@@H]1CC[C@@H]2n1cc[n+](CC(=O)c2ccccc2)c1 | < 4.70 | < 4.70 | < 4.70 | < 4.70 | < 4.70
C[C@@H]1CC[C@@]2(OC1)O[C@H]1C[C@H]3[C@@H]4CC=C5C[C@H](n6ccnc6)CC[C@]5(C)[C@H]4CC[C@]3(C)[C@H]1[C@@H]2C | < 4.70 | < 4.70 | < 4.70 | < 4.70 | < 4.70
CC(C)CCC[C@@H](C)[C@H]1CC[C@H]2[C@@H]3CC=C4C[C@@H](n5ccnc5)CC[C@]4(C)[C@H]3CC[C@]12C | < 4.70 | < 4.70 | < 4.70 | < 4.70 | < 4.70
COc1ccc(C(=O)C[n+]2ccn([C@H]3CC[C@H]4[C@@H]5CC=C6C[C@@H](O)CC[C@]6(C)[C@H]5CC[C@]34C)c2)cc1 | < 4.70 | < 4.70 | < 4.70 | < 4.70 | < 4.70
C[C@@H]1CC[C@@]2(OC1)O[C@H]1C[C@H]3[C@@H]4CC=C5C[C@H](n6cc[n+](CC(=O)c7ccc8ccccc8c7)c6)CC[C@]5(C)[C@H]4CC[C@]3(C)[C@H]1[C@@H]2C | 5.64 | 5.48 | 5.44 | 5.72 | 6.02
C[C@@H]1CC[C@@]2(OC1)O[C@H]1C[C@H]3[C@@H]4CC=C5C[C@H](n6cnc7ccccc76)CC[C@]5(C)[C@H]4CC[C@]3(C)[C@H]1[C@@H]2C | < 4.70 | < 4.70 | < 4.70 | < 4.70 | < 4.70
CC(C)CCC[C@@H](C)[C@H]1CC[C@H]2[C@@H]3CC=C4C[C@H](n5cc[n+](CC(=O)c6ccccc6)c5)CC[C@]4(C)[C@H]3CC[C@]12C | 5.08 | 5.07 | 5.04 | 5.83 | 5.16
C[C@]12CC[C@H]3[C@@H](CC=C4C[C@@H](O)CC[C@@]43C)[C@@H]1CC[C@@H]2n1cc[n+](CC(=O)c2ccc3ccccc3c2)c1 | 5.36 | 5.01 | 5.25 | 5.46 | 5.70
CC(C)CCC[C@@H](C)[C@H]1CC[C@H]2[C@@H]3CC=C4C[C@H](n5c[n+](CC(=O)c6ccccc6)c6ccccc65)CC[C@]4(C)[C@H]3CC[C@]12C | 5.14 | 5.12 | 4.99 | 5.78 | 6.06
Cc1cc2c(cc1C)[n+](Cc1ccc3ccccc3c1)cn2[C@@H]1CC[C@@]2(C)C(=CC[C@H]3[C@@H]4C[C@@H]5O[C@]6(CC[C@@H](C)CO6)[C@@H](C)[C@@H]5[C@@]4(C)CC[C@@H]32)C1 | 5.72 | 5.29 | 5.80 | 6.23 | 6.38
Cc1cc2ncn([C@@H]3CC[C@@]4(C)C(=CC[C@H]5[C@@H]6CC[C@H]([C@H](C)CCCC(C)C)[C@@]6(C)CC[C@@H]54)C3)c2cc1C | < 4.70 | < 4.70 | < 4.70 | < 4.70 | 6.74
CC(C)CCC[C@@H](C)[C@H]1CC[C@H]2[C@@H]3CC=C4C[C@H](n5cc[n+](CC(=O)c6cccc(Br)c6)c5)CC[C@]4(C)[C@H]3CC[C@]12C | 5.07 | 5.14 | 5.20 | 5.77 | 5.00

Source: ChEMBL document CHEMBL4340516, “Synthesis and antitumor activity of novel steroidal imidazolium salt derivatives” (Eur J Med Chem, 2019)
